One experiment deals with T1, ALK5 (Homo sapiens, UniProt P36897).
T1 construct: purchased Reaction Biology Corp (Malvern, PA)
T1 sequence (P36897 34-503): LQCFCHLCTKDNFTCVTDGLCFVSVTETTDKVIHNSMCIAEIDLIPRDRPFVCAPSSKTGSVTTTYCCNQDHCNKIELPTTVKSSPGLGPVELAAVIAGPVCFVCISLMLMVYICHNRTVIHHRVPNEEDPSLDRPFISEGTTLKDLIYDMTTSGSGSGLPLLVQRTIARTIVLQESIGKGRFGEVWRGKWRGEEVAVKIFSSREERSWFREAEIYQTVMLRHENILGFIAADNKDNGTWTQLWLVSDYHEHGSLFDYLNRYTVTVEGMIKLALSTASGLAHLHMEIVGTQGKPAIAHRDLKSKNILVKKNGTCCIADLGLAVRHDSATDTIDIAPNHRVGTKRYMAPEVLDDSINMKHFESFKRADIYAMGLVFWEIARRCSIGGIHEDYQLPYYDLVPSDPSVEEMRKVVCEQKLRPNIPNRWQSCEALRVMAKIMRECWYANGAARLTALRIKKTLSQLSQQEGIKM
Description: ALK5 enzyme inhibition assay (33P-ATP filter-binding, Reaction Biology Corp). Type of experiment: biochemical. The following applies: casein substrate 1 mg/mL, 10 uM ATP. The method, then:
ALK5 enzyme inhibition assays were performed by Reaction Biology Corp (Malvern, PA). 1 mg/mL of peptide subtrate (casein) and 10 uM ATP were prepared in a mixture of fresh reaction buffer. The kinase was delivered into the substrate solution which was gently mixed. Compounds in 100% DMSO were added to the kinase reaction mixture by Acoustic technology (Echo550; nanoliter range) and the mixture was incubated for 20 min at room temperature. ^33P-ATP (Specific activity 10 uCi/uL) was added into the reaction mixture to initiate the reaction and the reaction mixture was incubated for 2 hours at room temperature. Radioactivity was detected by filter-binding method and kinase activity data were expressed as the percent remaining kinase activity in test samples compared to vehicle (dimethyl sulfoxide) reactions. IC50 values and curve fits were obtained using Prism (GraphPad Software).

Experiment [1] has as its system TGFb/SMAD Signaling Pathway SBE reporter cell line. Description: TGFb reporter assay (luciferase). Type of experiment: cell-based. The following applies: 5-6 h preincubation, then TGFb, 18 h, luminescence. On the procedure:
TGFb/SMAD Signaling Pathway SBE reporter cell line was obtained from BPS Bioscience. Cells were passed/expanded/stored in liquid nitrogen per supplier's instruction with the exception that growth media was changed to DMEM-C with Geneticin (DMEM supplemented with 10% fetal bovine serum, 1× NEAA, 1 mM Pyruvate, 2 mM glutamine, 50 μg/mL penicillin, 50 U/mL streptomycin and 400 ug/mL of Geneticin). The assay media was MEM supplemented with 0.5% fetal bovine serum, 1× NEAA, 1 mM Pyruvate, 50 μg/mL penicillin and 50 U/mL streptomycin.
Reporter cells were harvested from the tissue culture flasks by incubation in small quantity of Versene at room temperature for three to five minutes after the media in the flask was removed and cells rinsed with PBS. Cells were counted and diluted in the assay media at ˜0.8×10^6 cells/mL then 50 uL/well were added to 96-well assay plate. Test samples (at desired concentrations diluted in assay media) were added to assay plate containing the 50 uL/well of cells (or media only), 50 uL per well, and incubated for 5-6 hours at 37° C. in a 5% CO2 humidified incubator. After that time, 15 uL of TGFb diluted to 12.5 ng/mL in the assay media was added to the plate. Controls included TGFb titration (from 25 to 0 ng/mL) without inhibitors, and media only (without cells, inhibitor or TGFb). Plates were incubated at 37° C. in a 5% CO2 humidified incubator for 18 h. Luciferase substrate solution was subsequently added at 75 uL per well, incubated in dark with shaking at room temperature for 10 min, and luminescence was measured using a luminometer.

For `Cc1cccc(-c2nc(CNC3CCc4ccccc43)[nH]c2-c2ccc3ncnn3c2)n1` (racemic) [Compound 1.26, rac-N-((5-([1,2,4]triazolo[1,5-a]pyridin-6-yl)-4-(6-methylpyridin-2-yl)-1H-imidazol-2-yl)methyl)-2,3-dihydro-1H-inden-1-amine], the values for the IC50 (at ALK5; in experiment [1]) were 0.1 to 1 µM and 0.01 to 0.1 µM, respectively. For `Cc1cccc(-c2nc(CNc3ccc4c(c3)CNCC4)[nH]c2-c2ccc3ncnn3c2)n1` [Compound 1.1, N-((5-([1,2,4]triazolo[1,5-a]pyridin-6-yl)-4-(6-methylpyridin-2-yl)-1H-imidazol-2-yl)methyl)-1,2,3,4-tetrahydroisoquinolin-7-amine], the IC50 (at ALK5; in experiment [1]) was 0.1 to 1 µM in each case.

Consider `Cc1cccc(-c2nc(CNc3ccc4c(c3)CCNC4)[nH]c2-c2ccc3ncnn3c2)n1` [Compound 1.2, N-((5-([1,2,4]triazolo[1,5-a]pyridin-6-yl)-4-(6-methylpyridin-2-yl)-1H-imidazol-2-yl)methyl)-1,2,3,4-tetrahydroisoquinolin-6-amine], for which the IC50 (at ALK5; in experiment [1]) was 0.1 to 1 µM each time.

Regarding `Cc1cccc(-c2nc(CNc3cccc4c3CNCC4)[nH]c2-c2ccc3ncnn3c2)n1` [Compound 1.3, N-((5-([1,2,4]triazolo[1,5-a]pyridin-6-yl)-4-(6-methylpyridin-2-yl)-1H-imidazol-2-yl)methyl)-1,2,3,4-tetrahydroisoquinolin-8-amine], the half-maximal inhibitory concentration (IC50) (at ALK5; in experiment [1]) was 0.1 to 1 µM in each case. Regarding `Cc1cccc(-c2nc(CNc3cccc4c3CCNC4)[nH]c2-c2ccc3ncnn3c2)n1` [Compound 1.4, N-((5-([1,2,4]triazolo[1,5-a]pyridin-6-yl)-4-(6-methylpyridin-2-yl)-1H-imidazol-2-yl)methyl)-1,2,3,4-tetrahydroisoquinolin-5-amine], the IC50 (at ALK5; in experiment [1]) was 0.1 to 1 µM throughout. In the case of `Cc1cccc(-c2nc(CNc3ccc4c(c3)CCC4N)[nH]c2-c2ccc3ncnn3c2)n1` (stereo not drawn) [Compound 1.5, N^5-((5-([1,2,4]triazolo[1,5-a]pyridin-6-yl)-4-(6-methylpyridin-2-yl)-1H-imidazol-2-yl)methyl)-2,3-dihydro-1H-indene-1,5-diamine], in experiment [1], the IC50 fell in the range of 0.1 to 1 µM. The same measure, in the same setting: in the case of `Cc1cccc(-c2nc(CNc3cccc4c3CCC4N)[nH]c2-c2ccc3ncnn3c2)n1` (stereo not drawn) [Compound 1.6, N^4-((5-([1,2,4]triazolo[1,5-a]pyridin-6-yl)-4-(6-methylpyridin-2-yl)-1H-imidazol-2-yl)methyl)-2,3-dihydro-1H-indene-1,4-diamine] it was 0.1 to 1 µM; in that of `Cc1cccc(-c2nc(CNC34CC(C3)C4)[nH]c2-c2ccc3ncnn3c2)n1` [Compound 1.9, N-((5-([1,2,4]triazolo[1,5-a]pyridin-6-yl)-4-(6-methylpyridin-2-yl)-1H-imidazol-2-yl)methyl)bicyclo-[1.1.1]pentan-1-amine], 0.01 to 0.1 µM; in that of `Cc1cccc(-c2nc(CNC3CCCOC3)[nH]c2-c2ccc3ncnn3c2)n1` (stereo not drawn) [Compound 1.15, 1-(5-([1,2,4]triazolo[1,5-a]pyridin-6-yl)-4-(6-methylpyridin-2-yl)-1H-imidazol-2-yl)-N-(3-tetrahydropyranyl)methanamine], 0.01 to 0.1 µM. As to `Cc1cccc(-c2nc(CNC3CCCCC3C)[nH]c2-c2ccc3ncnn3c2)n1` (stereo not drawn) [Compound 1.16, 1-(5-([1,2,4]triazolo[1,5-a]pyridin-6-yl)-4-(6-methylpyridin-2-yl)-1H-imidazol-2-yl)-N-(2-methylcyclohexyl)methanamine], the IC50 in experiment [1] lay within 0.01 to 0.1 µM. The same measure, in the same setting: for `Cc1cccc(-c2nc(CNc3cccc4c3C(N)CC4)[nH]c2-c2ccc3ncnn3c2)n1` (stereo not drawn) [Compound 1.20, N7-((5-([1,2,4]triazolo[1,5-a]pyridin-6-yl)-4-(6-methylpyridin-2-yl)-1H-imidazol-2-yl)methyl)-2,3-dihydro-1H-indene-1,7-diamine] the value was 0.1 to 1 µM. In the case of `Cc1cccc(-c2nc(CNc3ccc4c(c3)C(N)CC4)[nH]c2-c2ccc3ncnn3c2)n1` (stereo not drawn) [Compound 1.21, N6-((5-([1,2,4]triazolo[1,5-a]pyridin-6-yl)-4-(6-methylpyridin-2-yl)-1H-imidazol-2-yl)methyl)-2,3-dihydro-1H-indene-1,6-diamine], in experiment [1], the IC50 lay in the range of 0.1 to 1 µM. For the molecule `CC(=O)NC1Cc2cccc(NCc3nc(-c4cccc(C)n4)c(-c4ccc5ncnn5c4)[nH]3)c2C1` (stereo not drawn) [Compound 1.23, N-(4-(((5-([1,2,4]triazolo[1,5-a]pyridin-6-yl)-4-(6-methylpyridin-2-yl)-1H-imidazol-2-yl)methyl)amino)-2,3-dihydro-1H-inden-2-yl)acetamide], the IC50 in experiment [1] lay within 0.1 to 1 µM. `Cc1cccc(-c2nc(CNC3CCCNC3)[nH]c2-c2ccn3ncnc3c2)n1` (stereo not drawn) [Compound 1.38, N-((5-([1,2,4]triazolo[1,5-a]pyridin-7-yl)-4-(6-methylpyridin-2-yl)-1H-imidazol-2-yl)methyl)piperidin-3-amine] gave a half-maximal inhibitory concentration (IC50) in experiment [1] of 1 to 10 µM. Turning to `Cc1cccc(-c2nc(CNC3CCNCC3)[nH]c2-c2ccn3ncnc3c2)n1` [Compound 1.39, N-((5-([1,2,4]triazolo[1,5-a]pyridin-7-yl)-4-(6-methylpyridin-2-yl)-1H-imidazol-2-yl)methyl)piperidin-4-amine], the IC50 in experiment [1] fell in the range of 1 to 10 µM. `Cc1cccc(-c2nc(C3CCCNC3)[nH]c2-c2ccc3ncnn3c2)n1` (stereo not drawn) [Compound 1.48, 6-(4-(6-methylpyridin-2-yl)-2-(piperidin-3-yl)-1H-imidazol-5-yl)-[1,2,4]triazolo[1,5-a]pyridine]: in experiment [1], the IC50 lay in the range of 0.1 to 1 µM. As to `Cc1cccc(-c2nc(C3CCCCN3)[nH]c2-c2ccc3ncnn3c2)n1` (stereo not drawn) [Compound 1.49, 6-(4-(6-methylpyridin-2-yl)-2-(piperidin-2-yl)-1H-imidazol-5-yl)-[1,2,4]triazolo[1,5-a]pyridine], the IC50 in experiment [1] is 0.1 to 1 µM.

Consider `Cc1cccc(-c2nc(C3CCNC3)[nH]c2-c2ccc3ncnn3c2)n1` (stereo not drawn) [Compound 1.50, 6-(4-(6-methylpyridin-2-yl)-2-(pyrrolidin-3-yl)-1H-imidazol-5-yl)-[1,2,4]triazolo[1,5-a]pyridine], for which, in experiment [1], the half-inhibitory concentration (IC50) lay within 0.1 to 1 µM. Turning to `Cc1cccc(-c2nc(C3CCN(C(=O)OC(C)(C)C)C3)[nH]c2-c2ccc3ncnn3c2)n1` (stereo not drawn) [Compound 1.51, tert-butyl 3-(5-([1,2,4]triazolo[1,5-a]pyridin-6-yl)-4-(6-methylpyridin-2-yl)-1H-imidazol-2-yl)pyrrolidine-1-carboxylate], the IC50 in experiment [1] was in the range of 0.1 to 1 µM. Still for that read-out and setting: in the case of `Cc1cccc(-c2nc(C3CN(C(=O)OC(C)(C)C)C3)[nH]c2-c2ccc3ncnn3c2)n1` [Compound 1.52, tert-butyl 3-(5-([1,2,4]triazolo[1,5-a]pyridin-6-yl)-4-(6-methylpyridin-2-yl)-1H-imidazol-2-yl)azetidine-1-carboxylate] it was 0.1 to 1 µM; in that of `Cc1cccc(-c2nc(C3CNC3)[nH]c2-c2ccc3ncnn3c2)n1` [Compound 1.53, 6-(2-(azetidin-3-yl)-4-(6-methylpyridin-2-yl)-1H-imidazol-5-yl)-[1,2,4]triazolo[1,5-a]pyridine], 1 to 10 µM. The same measure, in the same setting: for `Cc1cccc(-c2nc(C34CCC(N)(CC3)CC4)[nH]c2-c2ccc3ncnn3c2)n1` [Compound 1.55, 4-(5-([1,2,4]triazolo[1,5-a]pyridin-6-yl)-4-(6-methylpyridin-2-yl)-1H-imidazol-2-yl)bicyclo[2.2.2]octan-1-amine] the value was 1 to 10 µM.

The values are drawn from patent US20210154188A1, “ALK5 INHIBITORS, CONJUGATES, AND USES THEREOF” (SILVERBACK THERAPEUTICS, INC., priority 2018, published 2021).
